Measured values taken from patent publication US10945971B2, “Sphingosine kinase type 1 inhibitors and uses thereof” (Enzo Therapeutics, Inc., priority 2008, dated 2021).

Columns and labels:
Akt [1] = molecular target: Akt (Homo sapiens, UniProt P31749); conditions: Paugh et al. Blood 2008; cited from earlier work
p70S6K = assay: Western blotting of p70S6K phosphorylation, LN229 cells; format: cell-based, human
Protocol: (§1) Cells were scraped in buffer containing 20 mM Tris-HCl, pH 7.5, 50 mM NaCl, 50 mM NaF, 30 mM Na4P2O7, 20 mM 2-glycerophosphate, 1 mM Na3VO4, 5 mM EDTA, 2 mM EGTA, 0.5% SDS and protease inhibitor cocktail (1:200 dilution) and probe-sonicated. Equal amounts of protein determined with bicinchoninic acid (Pierce, Rockford, Ill.), were resolved by SDS-PAGE and transferred to nitrocellulose membranes. Blots were blocked with 5% non-fat dry milk in Tris-buffered saline containing 0.1% […] (TBST) for 1 h at room temperature, and then incubated with primary antibodies (1:3,000 in 1% BSA) overnight, followed by the appropriate HRP-conjugated secondary antibodies (1:40,000 in 1% BSA). Immunocomplexes were visualized by enhanced chemiluminescence (Pierce).

U373 cells [2] = assay: Boyden chamber chemotaxis, U373 cells; format: cell-based, human
Protocol: (§2) Boyden chamber invasion assays were carried out essentially as described (Shida et al. Cancer Res 68:6569-6577, 2008).

GBM6 = assay: In vitro invasion, GBM6 cells; format: cell-based, human
Protocol: as §2

LN229 cells [3] = assay: Cell proliferation (WST-1), LN229 cells; format: cell-based, human
Protocol: (§3) U373-MG and LN229 human glioblastoma cells (ATTC, Manassas, Va.) were cultured in DMEM supplemented with 5% FCS. Primary human non-established glioblastoma GBM6 cells were kindly provided by Dr. C. David James and were passaged as tumors in nude mice and subcultured for 1 week following isolation from tumors in media containing 2% FCS to prevent growth of contaminating rodent fibroblasts and then cultured in 5% FCS as described (Yacoub et al., Mol Cancer Ther 7:314-329, 2008). LN229 cells were transfected with H2B-EGFP plasmid and stable colonies were isolated following selection with 1 mg/ml of G418. LN229-H2B-EGFP cells were passaged as tumors as described above.
(§4) Cells were plated at 10,000 cells/well in 48-well plates and allowed to attach for 24 h. Cell proliferation was measured at the indicated times with WST-1 and absorbance was measured in a plate reader at 450 nm with background subtraction at 630 nm. Cell death was detected by trypan blue exclusion assays in which the percent of blue dye incorporating cells were determined using a light microscope and a hemacytometer as described (Yacoub et al. Mol Cancer Ther 7:314-329, 2008). Apoptotic cell death was measured by staining cell nuclei with the Hoechst dye bisbenzimide and apoptotic cells were identified by condensed, fragmented nuclear regions as described previously (Sankala et al. Cancer Res 67:10466-10474, 2007). A minimum of 300 cells was scored.

Akt [4] = assay: Western blotting of Akt phosphorylation, U373 cells; format: cell-based, human
Protocol: as §1

ERK1/2 = assay: Western blotting of ERK1/2 activation, U373 cells; format: cell-based, human
Protocol: as §1

LN229 cells [5] = assay: Apoptosis of LN229 cells (PARP cleavage, nuclear condensation, TUNEL); format: cell-based, human
Protocol: Cells were grown on 3-aminopropyl-triethoxysilane-treated 15 mm glass cover slips in 24 well plates. Following treatments, cells were washed with PBS, fixed with 3% paraformaldehyde for 10 min at room temperature, and blocked in TBST buffer containing 1% BSA. After washing, cells were incubated in the same buffer containing Alexa-conjugated phalloidin for 30 min, followed by 15 min incubation in 10 μg/ml of Hoechst 33342. For TUNEL assays, fixed cells were permeabilized with 0.5% TX-100 for 30 min, washed and incubated in TdT buffer supplemented with 250 μM CoCl2, 20 units TdT (NEB, Ipswich, Mass.) and 1 nM fluorescein-12-dUTP (Roche) for 1 h at 37° C. […]
as §4, with “A minimum of 300 cells was scored.” left out

LN229 cells [6] = assay: Colony formation (clonogenic) assay, LN229 cells; format: cell-based, human
Protocol: Cells were plated at a density of 1000 cells/well in a 12-well plate in DMEM containing 5% serum. After 8 h, SK1-I was added and 2 h later, the media was changed. After 10 days, cells were fixed in 4% paraformaldehyde and stained with crystal violet (0.05%). Colonies larger then 0.5 mm in diameter were counted.

[7] = test system: intracranial LN229-H2B-EGFP tumors; assay: Intracranial LN229 xenograft tumors in nu/nu mice; format: in vivo
Protocol: Adult female NCI nu/nu mice were anesthetized and LN229-H2B-EGFP cells (2.5×10^4 in 1 μl PBS) were stereotactically implanted in the putamen region (1 mm anterior and 2.5 mm lateral to the Bregma at the depth of 3.5 mm at a rate of 0.1 μl/min). Mice were monitored for recovery until complete wakening. 20 days after implantation, mice were injected i.p. with SK1-I (20 mg/kg in PBS) every other day. Mice were observed daily following tumor implantation and were euthanized on reaching a moribund state.
Experiments were repeated at least three times with consistent results. For each experiment, data from triplicate samples were expressed as means±S.D. Statistics were performed by single factor ANOVA, and p<0.05 was considered significant. The Kaplan-Meier estimator was used to generate the survival curves and to estimate the median survival values. Differences between survival curves were compared using a log-rank test.

Akt [8] = assay: Western blotting of Akt phosphorylation, GBM6 cells; format: cell-based, human; conditions: GBM6, shortly following treatment
Protocol: as §1

U373 cells [9] = assay: Cell proliferation (WST-1), U373 cells; format: cell-based, human
Protocol: as §3, §4

[10] = test system: S1P, sphingosine and ceramide levels; assay: Sphingolipid metabolite levels by LC-ESI-MS/MS after SK1-I; format: cell-based
Text: Lipids were extracted and phosphorylated and unphosphorylated sphingoid bases, individual ceramide acyl chain species, as well as SK1-I and its metabolites were quantified by liquid chromatography, electrospray ionization-tandem mass spectrometry (LC-ESI-MS/MS) as described previously (Merrill et al. Methods 36:207-224, 2005).

Chain of Akt (Homo sapiens, UniProt P31749) (P31749 whole entry): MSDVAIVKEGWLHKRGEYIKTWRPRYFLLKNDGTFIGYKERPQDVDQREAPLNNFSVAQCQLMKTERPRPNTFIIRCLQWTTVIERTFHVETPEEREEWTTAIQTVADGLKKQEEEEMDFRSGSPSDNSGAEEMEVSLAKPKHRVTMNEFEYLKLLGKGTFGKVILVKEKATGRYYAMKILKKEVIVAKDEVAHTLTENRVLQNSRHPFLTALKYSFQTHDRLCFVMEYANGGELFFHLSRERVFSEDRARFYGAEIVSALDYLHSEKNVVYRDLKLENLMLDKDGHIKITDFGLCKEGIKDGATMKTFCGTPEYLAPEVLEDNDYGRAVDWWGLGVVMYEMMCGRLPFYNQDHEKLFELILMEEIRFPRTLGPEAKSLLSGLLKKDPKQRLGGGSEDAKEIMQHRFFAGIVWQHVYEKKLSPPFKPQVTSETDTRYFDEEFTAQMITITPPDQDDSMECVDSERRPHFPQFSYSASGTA

## CCCCCc1ccc(/C=C/[C@H](O)[C@@H](CO)NC)cc1 [SK1-I, (2R,3S,4E)-N-methyl-5-(4′-pentylphenyl)-2-aminopent-4-ene-1,3-diol]
Akt [1]
  Akt activity in an in vitro kinase assay: did not inhibit Akt activity
p70S6K
  activation of p70S6K (Thr389): reduced activation
U373 cells [2]
  chemotaxis toward serum or EGF: reduced
GBM6
  serum- and EGF-induced invasion: suppressed
LN229 cells [3]; LN229, 10 μM, absence of serum
  cell growth: strongly inhibited growth
LN229 cells [3]; LN229, 10 μM, presence of serum, within 2-4 days
  cell numbers: severe reductions in cell numbers
LN229 cells [3]; LN229 cells
  concentration at which a significant growth inhibitory effect was observed: 3 µM
Akt [4]; U373
  basal Akt phosphorylation at Thr308 and Ser473: reduced
  time to significant inhibitory effect on Akt phosphorylation: ≤ 20 min
Akt [4]; U373, data not shown
  duration of inhibitory effect on Akt phosphorylation: at least 24 hours
Akt [4]; after treatment with SK1-I
  total Akt levels: no significant reductions
ERK1/2
  EGF- and serum-induced ERK1/2 activation: did not reduce
LN229 cells [5]
  apoptosis (PARP cleavage, fragmented and condensed nuclei, TUNEL): induced apoptosis
LN229 cells [6]
  long-term survival in clonogenic assays: markedly suppressed
[7]; 20 mg/kg i.p. every other day from day 20, when vehicle mice were moribund (day 43-49)
  symptoms of tumor burden: None of the SK1-I treated mice showed any symptoms
[7]; day 48
  tumors on T2W MRI: no tumors were evident
[7]; day 48, site of injection
  tumor on gadolinium enhanced MRI: small tumor
[7]; i.p. administration, vs vehicle control
  Kaplan-Meier survival: significant survival benefit
[7]; vs vehicle treated animals
  invading GFP-labeled LN229 cells in intracranial tumor sections: significantly fewer invading cells
Akt [8]
  basal and serum- and EGF-stimulated phosphorylation of Akt: reduced
U373 cells [9]; U373, 10 μM, absence of serum
  cell growth: strongly inhibited growth
U373 cells [9]; U373, 10 μM, presence of serum, within 2-4 days
  cell numbers: severe reductions in cell numbers
U373 cells [9]; U373 cells
  concentration at which a significant growth inhibitory effect was observed: 3 µM
[10]; after 24 h of treatment
  ceramide levels, particularly C16-ceramide: increased markedly
[10]; within 20 min after addition
  S1P levels: significant reduction
[10]; within 1 h after addition
  ceramide levels: without major changes
  decrease in S1P levels: 70%
  sphingosine levels: increase
